From ChEMBL document CHEMBL1144081, “Sesquiterpene lactones from neurolaena oaxacana” (1999)
In brackets after ≈: the same amount, converted by molar mass.

How the values were obtained:
Entamoeba histolytica = test: […] activity against Entamoeba histolytica; assay type: functional
Giardia intestinalis = test: Antigiardial activity against Giardia intestinalis; assay type: functional; details: Giardia duodenalis

Question: `C=C1C(=O)O[C@@H]2C[C@@H](C)/C=C\C(=O)[C@@](C)(O)[C@H](OC(C)=O)[C@@H](OC(=O)CC(C)C)[C@@H]12` [NEUROLENIN B] was tested. Which MIC (Entamoeba histolytica) did it give?
Answer: 7.6 µM (≈ 3.21 µg/mL)

Question: And the MIC (Giardia intestinalis)?
Answer: 3.8 µM (≈ 1.61 µg/mL)

Question: With `Cc1ncc([N+](=O)[O-])n1CCO` [METRONIDAZOLE] as the compound, how does the MIC (Giardia intestinalis) read?
Answer: 1.17 µM (≈ 0.2 µg/mL)

Question: Which MIC (Entamoeba histolytica) does the source give for `CC[C@H]1CN2CCc3cc(OC)c(OC)cc3[C@@H]2C[C@@H]1C[C@H]1NCCc2cc(OC)c(OC)cc21` [EMETINE] here?
Answer: 2.9 µM (≈ 1.39 µg/mL)
